Source: PubChem BioAssay (NCI)
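These data come from cells grown in 96-well plates and exposed to compound for 48 hours at five concentrations. GI50: concentration for 50% inhibition of growth. Definition used: TGI = concentration required for complete inhibition of growth.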

Experiments:
Assay in all cases: inhibition of tumour cell growth, NCI panel, 48 h
786-0 renal = tested on: 786-0 renal
A498 renal = tested on: A498 renal
A549 NSCLC = tested on: A549 NSCLC
ACHN renal = tested on: ACHN renal
BT-549 breast = tested on: BT-549 breast
CAKI-1 renal = tested on: CAKI-1 renal
CCRF-CEM leukemia = tested on: CCRF-CEM leukemia
COLO 205 colon = tested on: COLO 205 colon
DU-145 prostate = tested on: DU-145 prostate
EKVX NSCLC = tested on: EKVX NSCLC
HCC-2998 colon = tested on: HCC-2998 colon
HCT-116 colon = tested on: HCT-116 colon
HCT-15 colon = tested on: HCT-15 colon
HL-60(TB) leukemia = tested on: HL-60(TB) leukemia
HOP-62 NSCLC = tested on: HOP-62 NSCLC
HOP-92 NSCLC = tested on: HOP-92 NSCLC
HS 578T breast = tested on: HS 578T breast
HT29 colon = tested on: HT29 colon
IGROV1 ovarian = tested on: IGROV1 ovarian
K-562 leukemia = tested on: K-562 leukemia
KM12 colon = tested on: KM12 colon
LOX IMVI melanoma = tested on: LOX IMVI melanoma
M14 melanoma = tested on: M14 melanoma
MALME-3M melanoma = tested on: MALME-3M melanoma
MCF7 breast = tested on: MCF7 breast
MDA-MB-231 breast = tested on: MDA-MB-231 breast
MDA-MB-435 = tested on: MDA-MB-435
MOLT-4 leukemia = tested on: MOLT-4 leukemia
NCI-H226 lung = tested on: NCI-H226 lung
NCI-H23 lung = tested on: NCI-H23 lung
NCI-H460 lung = tested on: NCI-H460 lung
NCI-H522 lung = tested on: NCI-H522 lung
NCI/ADR-RES ovarian = tested on: NCI/ADR-RES ovarian
OVCAR-3 ovarian = tested on: OVCAR-3 ovarian
OVCAR-4 ovarian = tested on: OVCAR-4 ovarian
OVCAR-5 ovarian = tested on: OVCAR-5 ovarian
OVCAR-8 ovarian = tested on: OVCAR-8 ovarian
PC-3 prostate = tested on: PC-3 prostate
RPMI-8226 leukemia = tested on: RPMI-8226 leukemia
SF-268 CNS = tested on: SF-268 CNS
SF-295 CNS = tested on: SF-295 CNS
SF-539 CNS = tested on: SF-539 CNS
SK-MEL-2 melanoma = tested on: SK-MEL-2 melanoma
SK-MEL-28 melanoma = tested on: SK-MEL-28 melanoma
SK-MEL-5 melanoma = tested on: SK-MEL-5 melanoma
SK-OV-3 ovarian = tested on: SK-OV-3 ovarian
SN12C renal = tested on: SN12C renal
SNB-19 CNS = tested on: SNB-19 CNS
SNB-75 CNS = tested on: SNB-75 CNS
SW-620 colon = tested on: SW-620 colon
T-47D breast = tested on: T-47D breast
TK-10 renal = tested on: TK-10 renal
U251 CNS = tested on: U251 CNS
UACC-257 melanoma = tested on: UACC-257 melanoma
UACC-62 melanoma = tested on: UACC-62 melanoma
UO-31 renal = tested on: UO-31 renal
SR leukemia = tested on: SR leukemia

## C[C@]12CC[C@H]3[C@@H](CC=C4C[C@@H](O)CC[C@@]43C)[C@@H]1C/C(=C\c1cccc(OCCN3CCOCC3)c1)[C@@H]2O
786-0 renal
  GI50: 50.7 µM
  TGI: > 100 µM
A498 renal
  GI50: > 100 µM
  TGI: > 100 µM
A549 NSCLC
  GI50: > 100 µM
  TGI: > 100 µM
ACHN renal
  GI50: > 100 µM
  TGI: > 100 µM
BT-549 breast
  GI50: 27 µM
  TGI: 95.1 µM
CAKI-1 renal
  GI50: > 100 µM
  TGI: > 100 µM
CCRF-CEM leukemia
  GI50: 41.1 µM
  TGI: > 100 µM
COLO 205 colon
  GI50: 7.39 µM
  TGI: 58.3 µM
DU-145 prostate
  GI50: > 100 µM
  TGI: > 100 µM
EKVX NSCLC
  GI50: > 100 µM
  TGI: > 100 µM
HCC-2998 colon
  GI50: > 100 µM
  TGI: > 100 µM
HCT-116 colon
  GI50: 80.6 µM
  TGI: > 100 µM
HCT-15 colon
  GI50: 38.9 µM
  TGI: > 100 µM
HL-60(TB) leukemia
  GI50: 21.5 µM
  TGI: > 100 µM
HOP-62 NSCLC
  GI50: > 100 µM
  TGI: > 100 µM
HOP-92 NSCLC
  GI50: > 100 µM
  TGI: > 100 µM
HS 578T breast
  GI50: > 100 µM
  TGI: > 100 µM
HT29 colon
  GI50: 7.36 µM
  TGI: > 100 µM
IGROV1 ovarian
  GI50: 46 µM
  TGI: > 100 µM
K-562 leukemia
  GI50: 11.6 µM
  TGI: 40.8 µM
KM12 colon
  GI50: > 100 µM
  TGI: > 100 µM
LOX IMVI melanoma
  GI50: > 100 µM
  TGI: > 100 µM
M14 melanoma
  GI50: 24.3 µM
  TGI: 69.2 µM
MALME-3M melanoma
  GI50: 29.8 µM
  TGI: 65.1 µM
MCF7 breast
  GI50: > 100 µM
  TGI: > 100 µM
MDA-MB-231 breast
  GI50: 87.6 µM
  TGI: > 100 µM
MDA-MB-435
  GI50: 85.1 µM
  TGI: > 100 µM
MOLT-4 leukemia
  GI50: 13.3 µM
  TGI: 48.7 µM
NCI-H226 lung
  GI50: > 100 µM
  TGI: > 100 µM
NCI-H23 lung
  GI50: 48.5 µM
  TGI: > 100 µM
NCI-H460 lung
  GI50: > 100 µM
  TGI: > 100 µM
NCI-H522 lung
  GI50: > 100 µM
  TGI: > 100 µM
NCI/ADR-RES ovarian
  GI50: 74.1 µM
  TGI: > 100 µM
OVCAR-3 ovarian
  GI50: > 100 µM
  TGI: > 100 µM
OVCAR-4 ovarian
  GI50: > 100 µM
  TGI: > 100 µM
OVCAR-5 ovarian
  GI50: > 100 µM
  TGI: > 100 µM
OVCAR-8 ovarian
  GI50: > 100 µM
  TGI: > 100 µM
PC-3 prostate
  GI50: 27.4 µM
  TGI: > 100 µM
RPMI-8226 leukemia
  GI50: 7.83 µM
  TGI: > 100 µM
SF-268 CNS
  GI50: 70.9 µM
  TGI: > 100 µM
SF-295 CNS
  GI50: 89.4 µM
  TGI: > 100 µM
SF-539 CNS
  GI50: > 100 µM
  TGI: > 100 µM
SK-MEL-2 melanoma
  GI50: 55.2 µM
  TGI: > 100 µM
SK-MEL-28 melanoma
  GI50: 22.4 µM
  TGI: 56.4 µM
SK-MEL-5 melanoma
  GI50: 4.98 µM
  TGI: 23.3 µM
SK-OV-3 ovarian
  GI50: > 100 µM
  TGI: > 100 µM
SN12C renal
  GI50: > 100 µM
  TGI: > 100 µM
SNB-19 CNS
  GI50: > 100 µM
  TGI: > 100 µM
SNB-75 CNS
  GI50: > 100 µM
  TGI: > 100 µM
SW-620 colon
  GI50: 28.3 µM
  TGI: > 100 µM
T-47D breast
  GI50: 6.46 µM
  TGI: > 100 µM
TK-10 renal
  GI50: > 100 µM
  TGI: > 100 µM
U251 CNS
  GI50: > 100 µM
  TGI: > 100 µM
UACC-257 melanoma
  GI50: 16.6 µM
  TGI: 84.3 µM
UACC-62 melanoma
  GI50: > 100 µM
  TGI: > 100 µM
UO-31 renal
  GI50: 33.5 µM
  TGI: > 100 µM

## Oc1ccccc1C=Nc1ccc(Oc2ccc(Cl)cc2)c(Cl)c1
786-0 renal
  TGI: 98.7 µM
A498 renal
  TGI: 33.7 µM
A549 NSCLC
  TGI: 58.7 µM
ACHN renal
  TGI: 88.3 µM
BT-549 breast
  TGI: 44.4 µM
CAKI-1 renal
  TGI: 95.4 µM
CCRF-CEM leukemia
  TGI: 54.3 µM
COLO 205 colon
  TGI: 41.1 µM
DU-145 prostate
  TGI: > 100 µM
EKVX NSCLC
  TGI: 52 µM
HCC-2998 colon
  TGI: 45.7 µM
HCT-116 colon
  TGI: 40.1 µM
HCT-15 colon
  TGI: 36.6 µM
HL-60(TB) leukemia
  TGI: 65.4 µM
HOP-62 NSCLC
  TGI: 34.7 µM
HOP-92 NSCLC
  TGI: 41.4 µM
HS 578T breast
  TGI: 52.5 µM
HT29 colon
  TGI: 40.1 µM
IGROV1 ovarian
  TGI: > 100 µM
KM12 colon
  TGI: 65.1 µM
LOX IMVI melanoma
  TGI: 41 µM
M14 melanoma
  TGI: 46 µM
MALME-3M melanoma
  TGI: 44.2 µM
MCF7 breast
  TGI: > 100 µM
MDA-MB-231 breast
  TGI: 40.4 µM
MDA-MB-435
  TGI: > 100 µM
MOLT-4 leukemia
  TGI: > 100 µM
NCI-H226 lung
  TGI: 93.9 µM
NCI-H23 lung
  TGI: 45.4 µM
NCI-H460 lung
  TGI: 54.5 µM
NCI-H522 lung
  TGI: 31.6 µM
NCI/ADR-RES ovarian
  TGI: 47.5 µM
OVCAR-3 ovarian
  TGI: 38.5 µM
OVCAR-4 ovarian
  TGI: 66.2 µM
OVCAR-5 ovarian
  TGI: 79.5 µM
OVCAR-8 ovarian
  TGI: 57.9 µM
PC-3 prostate
  TGI: 53.6 µM
RPMI-8226 leukemia
  TGI: 81.1 µM
SF-268 CNS
  TGI: 43.5 µM
SF-295 CNS
  TGI: 48.8 µM
SF-539 CNS
  TGI: 58.7 µM
SK-MEL-2 melanoma
  TGI: 32.4 µM
SK-MEL-28 melanoma
  TGI: 72.5 µM
SK-MEL-5 melanoma
  TGI: 50.9 µM
SK-OV-3 ovarian
  TGI: 71.2 µM
SN12C renal
  TGI: 41.4 µM
SNB-19 CNS
  TGI: 49.6 µM
SNB-75 CNS
  TGI: 58.6 µM
SR leukemia
  TGI: 69.3 µM
SW-620 colon
  TGI: > 100 µM
T-47D breast
  TGI: 40.1 µM
TK-10 renal
  TGI: > 100 µM
U251 CNS
  TGI: 50.5 µM
UACC-257 melanoma
  TGI: > 100 µM
UACC-62 melanoma
  TGI: 49.6 µM
UO-31 renal
  TGI: 24.2 µM
